# Laboratory results published in patent US10807992B2, “Single enantiomer antiparasitic compounds” (priority 2017, dated 2020).
# Where two headings read alike, the source gives them in different places.
# Tested on: Aedes aegypti
# Assay: In vitro contact activity against adult mosquitoes (coated vial)
# Experimental: Aedes aegypti (Louisiana Biologicals Inc., New Orleans, La.) eggs were allowed to hatch, close, and age between 3-5 days in an environmental chamber at 26° C., 80% humidity with light/dark cycles.
# For mosquito assays, an aliquot from each compound stock was added to an acetone/triton solution to achieve the desired top doses for the study. Serial dilutions were conducted from the top dose (i.e. 50 ppm) to achieve the desired titration range for EC50 and EC90 determination. The final DMSO concentration in each test vial was 0.5%. A 459 μL aliquot of each compound formulation was transferred to a vial and vials were immediately placed on an unheated roller unit to allow for an even coating of the vial walls. The vials were loosely capped and allowed to dry for a minimum of four hours in a chemical fume hood.
# For both contact and ingestion assays, five female Aedes aegypti adults were added to each vial or cage. The test vials for contact assays were held in an environmental chamber at 24° C., 80% humidity with light/dark cycles (12 hours each). The cages for mosquito ingestion assays were held in a temperature-controlled artificial feeding apparatus to allow continual access to organic bovine blood containing the desired concentration of compound. Fresh aliquots of compound-spiked bovine blood were provided daily for the duration of the study.
# Mosquitoes showing no movement or mosquitoes that were knocked down were noted as dead. Results from trial 1 and trial 2 contact assays are shown in Tables 12 and 13, respectively and the results from trial 3 mosquito ingestion assay is shown in table 14.
# For the mosquito contact and ingestion assays, each replicate contained 5 mosquitoes. For ease of calculation, the two replicates were added to equal a total of 10 mosquitoes.
smiles,measurement,setting,value
"O=C(CC(F)(F)F)N1CC2(C1)OCc1cc(C3=NSC(c4cc(Cl)c(F)c(Cl)c4)(C(F)(F)F)C3)ccc12 (racemic) [C1 racemate, 1-[6-[5-(3,5-dichloro-4-fluoro-phenyl)-5-(trifluoromethyl)-4H-isothiazol-3-yl]spiro[1H-isobenzofuran-3,3′-azetidine]-1′-yl]-3,3,3-trifluoro-propan-1-one]",mortality at 0.049 µM,"0.5 h, read-out: % Mortality R1 + R2, Trial 1, contact assay, dose 0.049 μM, 0.5 Hr",0%
same,mortality at 0.2 µM,"0.5 h, read-out: % Mortality R1 + R2, Trial 1, contact assay, dose 0.20 μM, 0.5 Hr",0%
same,mortality at 0.78 µM,"0.5 h, read-out: % Mortality R1 + R2, Trial 1, contact assay, dose 0.78 μM, 0.5 Hr",0%
same,mortality at 3.125 µM,"0.5 h, read-out: % Mortality R1 + R2, Trial 1, contact assay, dose 3.125 μM, 0.5 Hr",0%
same,mortality at 12.5 µM,"0.5 h, read-out: % Mortality R1 + R2, Trial 1, contact assay, dose 12.5 μM, 0.5 Hr",0%
same,mortality at 50 µM,"0.5 h, read-out: % Mortality R1 + R2, Trial 1, contact assay, dose 50 μM, 0.5 Hr",0%
same,mortality at 0.049 µM,"0.5 h, read-out: % Mortality R1 + R2, Trial 2, contact assay, dose 0.049 μM, 0.5 Hr",0%
same,mortality at 0.2 µM,"0.5 h, read-out: % Mortality R1 + R2, Trial 2, contact assay, dose 0.20 μM, 0.5 Hr",0%
same,mortality at 0.78 µM,"0.5 h, read-out: % Mortality R1 + R2, Trial 2, contact assay, dose 0.78 μM, 0.5 Hr",0%
same,mortality at 3.125 µM,"0.5 h, read-out: % Mortality R1 + R2, Trial 2, contact assay, dose 3.125 μM, 0.5 Hr",0%
same,mortality at 12.5 µM,"0.5 h, read-out: % Mortality R1 + R2, Trial 2, contact assay, dose 12.5 μM, 0.5 Hr",0%
same,mortality at 50 µM,"0.5 h, read-out: % Mortality R1 + R2, Trial 2, contact assay, dose 50 μM, 0.5 Hr",0%
same,mortality at 0.049 µM,"1 h, read-out: % Mortality R1 + R2, Trial 1, contact assay, dose 0.049 μM, 1 hr",0%
same,mortality at 0.2 µM,"1 h, read-out: % Mortality R1 + R2, Trial 1, contact assay, dose 0.20 μM, 1 hr",0%
same,mortality at 0.78 µM,"1 h, read-out: % Mortality R1 + R2, Trial 1, contact assay, dose 0.78 μM, 1 hr",0%
same,mortality at 3.125 µM,"1 h, read-out: % Mortality R1 + R2, Trial 1, contact assay, dose 3.125 μM, 1 hr",0%
same,mortality at 12.5 µM,"1 h, read-out: % Mortality R1 + R2, Trial 1, contact assay, dose 12.5 μM, 1 hr",0%
same,mortality at 50 µM,"1 h, read-out: % Mortality R1 + R2, Trial 1, contact assay, dose 50 μM, 1 hr",0%
same,mortality at 0.049 µM,"1 h, read-out: % Mortality R1 + R2, Trial 2, contact assay, dose 0.049 μM, 1 hr",0%
same,mortality at 0.2 µM,"1 h, read-out: % Mortality R1 + R2, Trial 2, contact assay, dose 0.20 μM, 1 hr",0%
same,mortality at 0.78 µM,"1 h, read-out: % Mortality R1 + R2, Trial 2, contact assay, dose 0.78 μM, 1 hr",0%
same,mortality at 3.125 µM,"1 h, read-out: % Mortality R1 + R2, Trial 2, contact assay, dose 3.125 μM, 1 hr",0%
same,mortality at 12.5 µM,"1 h, read-out: % Mortality R1 + R2, Trial 2, contact assay, dose 12.5 μM, 1 hr",0%
same,mortality at 50 µM,"1 h, read-out: % Mortality R1 + R2, Trial 2, contact assay, dose 50 μM, 1 hr",0%
same,mortality at 0.049 µM,"6 h, read-out: % Mortality R1 + R2, Trial 1, contact assay, dose 0.049 μM, 6 hr",0%
same,mortality at 0.2 µM,"6 h, read-out: % Mortality R1 + R2, Trial 1, contact assay, dose 0.20 μM, 6 hr",0%
same,mortality at 0.78 µM,"6 h, read-out: % Mortality R1 + R2, Trial 1, contact assay, dose 0.78 μM, 6 hr",0%
same,mortality at 3.125 µM,"6 h, read-out: % Mortality R1 + R2, Trial 1, contact assay, dose 3.125 μM, 6 hr",0%
same,mortality at 12.5 µM,"6 h, read-out: % Mortality R1 + R2, Trial 1, contact assay, dose 12.5 μM, 6 hr",0%
same,mortality at 50 µM,"6 h, read-out: % Mortality R1 + R2, Trial 1, contact assay, dose 50 μM, 6 hr",80%
same,mortality at 0.049 µM,"6 h, read-out: % Mortality R1 + R2, Trial 2, contact assay, dose 0.049 μM, 6 hr",0%
same,mortality at 0.2 µM,"6 h, read-out: % Mortality R1 + R2, Trial 2, contact assay, dose 0.20 μM, 6 hr",0%
same,mortality at 0.78 µM,"6 h, read-out: % Mortality R1 + R2, Trial 2, contact assay, dose 0.78 μM, 6 hr",0%
same,mortality at 3.125 µM,"6 h, read-out: % Mortality R1 + R2, Trial 2, contact assay, dose 3.125 μM, 6 hr",0%
same,mortality at 12.5 µM,"6 h, read-out: % Mortality R1 + R2, Trial 2, contact assay, dose 12.5 μM, 6 hr",10%
same,mortality at 50 µM,"6 h, read-out: % Mortality R1 + R2, Trial 2, contact assay, dose 50 μM, 6 hr",100%
same,mortality at 0.049 µM,"12 h, read-out: % Mortality R1 + R2, Trial 1, contact assay, dose 0.049 μM, 12 hr",0%
same,mortality at 0.2 µM,"12 h, read-out: % Mortality R1 + R2, Trial 1, contact assay, dose 0.20 μM, 12 hr",0%
same,mortality at 0.78 µM,"12 h, read-out: % Mortality R1 + R2, Trial 1, contact assay, dose 0.78 μM, 12 hr",0%
same,mortality at 3.125 µM,"12 h, read-out: % Mortality R1 + R2, Trial 1, contact assay, dose 3.125 μM, 12 hr",0%
same,mortality at 12.5 µM,"12 h, read-out: % Mortality R1 + R2, Trial 1, contact assay, dose 12.5 μM, 12 hr",0%
same,mortality at 50 µM,"12 h, read-out: % Mortality R1 + R2, Trial 1, contact assay, dose 50 μM, 12 hr",100%
same,mortality at 0.049 µM,"12 h, read-out: % Mortality R1 + R2, Trial 2, contact assay, dose 0.049 μM, 12 hr",0%
same,mortality at 0.2 µM,"12 h, read-out: % Mortality R1 + R2, Trial 2, contact assay, dose 0.20 μM, 12 hr",0%
same,mortality at 0.78 µM,"12 h, read-out: % Mortality R1 + R2, Trial 2, contact assay, dose 0.78 μM, 12 hr",0%
same,mortality at 3.125 µM,"12 h, read-out: % Mortality R1 + R2, Trial 2, contact assay, dose 3.125 μM, 12 hr",0%
same,mortality at 12.5 µM,"12 h, read-out: % Mortality R1 + R2, Trial 2, contact assay, dose 12.5 μM, 12 hr",80%
same,mortality at 50 µM,"12 h, read-out: % Mortality R1 + R2, Trial 2, contact assay, dose 50 μM, 12 hr",100%
same,mortality at 0.049 µM,"24 h, read-out: % Mortality R1 + R2, Trial 1, contact assay, dose 0.049 μM, 24 hr",0%
same,mortality at 0.2 µM,"24 h, read-out: % Mortality R1 + R2, Trial 1, contact assay, dose 0.20 μM, 24 hr",0%
same,mortality at 0.78 µM,"24 h, read-out: % Mortality R1 + R2, Trial 1, contact assay, dose 0.78 μM, 24 hr",0%
same,mortality at 3.125 µM,"24 h, read-out: % Mortality R1 + R2, Trial 1, contact assay, dose 3.125 μM, 24 hr",0%
same,mortality at 12.5 µM,"24 h, read-out: % Mortality R1 + R2, Trial 1, contact assay, dose 12.5 μM, 24 hr",90%
same,mortality at 50 µM,"24 h, read-out: % Mortality R1 + R2, Trial 1, contact assay, dose 50 μM, 24 hr",100%
same,mortality at 0.049 µM,"24 h, read-out: % Mortality R1 + R2, Trial 2, contact assay, dose 0.049 μM, 24 hr",0%
same,mortality at 0.2 µM,"24 h, read-out: % Mortality R1 + R2, Trial 2, contact assay, dose 0.20 μM, 24 hr",0%
same,mortality at 0.78 µM,"24 h, read-out: % Mortality R1 + R2, Trial 2, contact assay, dose 0.78 μM, 24 hr",0%
same,mortality at 3.125 µM,"24 h, read-out: % Mortality R1 + R2, Trial 2, contact assay, dose 3.125 μM, 24 hr",70%
same,mortality at 12.5 µM,"24 h, read-out: % Mortality R1 + R2, Trial 2, contact assay, dose 12.5 μM, 24 hr",100%
same,mortality at 50 µM,"24 h, read-out: % Mortality R1 + R2, Trial 2, contact assay, dose 50 μM, 24 hr",100%
same,mortality at 0.049 µM,"48 h, read-out: % Mortality R1 + R2, Trial 1, contact assay, dose 0.049 μM, 48 hr",40%
same,mortality at 0.2 µM,"48 h, read-out: % Mortality R1 + R2, Trial 1, contact assay, dose 0.20 μM, 48 hr",20%
same,mortality at 0.78 µM,"48 h, read-out: % Mortality R1 + R2, Trial 1, contact assay, dose 0.78 μM, 48 hr",30%
same,mortality at 3.125 µM,"48 h, read-out: % Mortality R1 + R2, Trial 1, contact assay, dose 3.125 μM, 48 hr",90%
same,mortality at 12.5 µM,"48 h, read-out: % Mortality R1 + R2, Trial 1, contact assay, dose 12.5 μM, 48 hr",100%
same,mortality at 50 µM,"48 h, read-out: % Mortality R1 + R2, Trial 1, contact assay, dose 50 μM, 48 hr",100%
same,mortality at 0.049 µM,"48 h, read-out: % Mortality R1 + R2, Trial 2, contact assay, dose 0.049 μM, 48 hr",0%
same,mortality at 0.2 µM,"48 h, read-out: % Mortality R1 + R2, Trial 2, contact assay, dose 0.20 μM, 48 hr",40%
same,mortality at 0.78 µM,"48 h, read-out: % Mortality R1 + R2, Trial 2, contact assay, dose 0.78 μM, 48 hr",0%
same,mortality at 3.125 µM,"48 h, read-out: % Mortality R1 + R2, Trial 2, contact assay, dose 3.125 μM, 48 hr",100%
same,mortality at 12.5 µM,"48 h, read-out: % Mortality R1 + R2, Trial 2, contact assay, dose 12.5 μM, 48 hr",100%
same,mortality at 50 µM,"48 h, read-out: % Mortality R1 + R2, Trial 2, contact assay, dose 50 μM, 48 hr",100%
